Peptide text beside a SMILES is read from it. * marks the point of attachment. Tos = Cc1ccc(S(=O)(=O)*)cc1; Isobutyryl = CC(C)C(=O)*; Pentanoyl = CCCCC(=O)*; PhAc = O=C(Cc1ccccc1)*; Piv = CC(C)(C)C(=O)*; Bz = O=C(c1ccccc1)*

In the first assay the target is porcine pancreatic elastase (Sus scrofa, UniProt P00772). The experiment in a line: in vitro elastase inhibition, test method of Visser and Blout. As to conditions: porcine pancreatic elastase as the enzyme; read-out: Ki (inhibitor constant). The class given is biochemical. From the text: Acta 268 (1972) 257, using porcine pancreatic elastase as the enzyme. The results obtained with representative dipeptide derivatives in this test are given in Table I hereinafter, the Ki being the inhibitor constant in millimoles per liter: […]
Chain of porcine pancreatic elastase (P00772 27-266): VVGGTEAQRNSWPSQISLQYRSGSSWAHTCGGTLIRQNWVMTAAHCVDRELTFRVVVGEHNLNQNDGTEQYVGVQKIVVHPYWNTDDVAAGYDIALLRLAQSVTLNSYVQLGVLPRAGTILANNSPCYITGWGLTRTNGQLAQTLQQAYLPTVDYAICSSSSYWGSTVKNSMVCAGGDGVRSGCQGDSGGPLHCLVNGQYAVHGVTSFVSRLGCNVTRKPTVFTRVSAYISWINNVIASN
Broadly, the Ki is a measure of affinity in units of concentration, obtained from inhibition or displacement. Regarding `CCCCC(=O)N[C@@H](C)C(=O)N1CCC[C@H]1C(=O)NCC` [N-(n-Valeryl)-L-alanyl-L-proline ethylamide] (Pentanoyl-Ala-Pro-NHEt), the Ki was determined as 80 µM.

As for `CCNC(=O)[C@H](C)NC(=O)[C@H](C)NC(=O)c1ccccc1` [N-Benzoyl-L-alanyl-L-alanine ethylamide] (Bz-Ala-Ala-NHEt), the inhibition constant (Ki) is 120 µM. On to `CCNC(=O)[C@@H]1CCCN1C(=O)[C@H](C)NC(=O)c1ccccc1` [N-Benzoyl-L-alanyl-L-proline ethylamide] (Bz-Ala-Pro-NHEt), for which the Ki was 26 µM. For the compound `CCNC(=O)[C@@H]1CCCN1C(=O)[C@H](C)NC(=O)C1CCCCC1` [N-Cyclohexylcarbonyl-L-alanyl-L-proline ethylamide], the Ki is 10 µM.

Consider `CCNC(=O)[C@@H]1CCCN1C(=O)[C@H](C)NC(=O)C(C)C` [N-Isobutanoyl-L-alanyl-L-proline ethylamide] (Isobutyryl-Ala-Pro-NHEt), for which the inhibition constant (Ki) came out at 60 µM. As to `CCNC(=O)[C@@H]1CCCN1C(=O)[C@H](C)NC(=O)Cc1ccccc1` [N-Phenacetyl-L-alanyl-L-proline ethylamide] (PhAc-Ala-Pro-NHEt), the Ki was found to be 86 µM. In the case of `CCNC(=O)[C@@H]1CCCN1C(=O)[C@H](C)NC(=O)C(C)(C)C` [N-Pivaloyl-L-alanyl-L-proline ethylamide] (Piv-Ala-Pro-NHEt), the Ki is 90 µM.

The target in the next assay is T1, human granulocyte elastase (Homo sapiens, UniProt P08246).
T1 sequence (P08246 30-267): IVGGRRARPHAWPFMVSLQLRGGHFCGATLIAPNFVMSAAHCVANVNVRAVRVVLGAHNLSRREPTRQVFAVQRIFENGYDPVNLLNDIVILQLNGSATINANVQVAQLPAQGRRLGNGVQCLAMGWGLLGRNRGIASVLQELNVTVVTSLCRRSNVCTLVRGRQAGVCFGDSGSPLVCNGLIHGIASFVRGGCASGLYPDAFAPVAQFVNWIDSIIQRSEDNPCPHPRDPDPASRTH
The assay is described as above. The class given is biochemical. Particulars: human granulocyte elastase as the enzyme; read-out: I50 (concentration which gives 50% inhibition of the human granulocyte elastase). An excerpt:
Acta 268 (1972) 257, using porcine pancreatic elastase as the enzyme. The results obtained with representative dipeptide derivatives in this test are given in Table I hereinafter, the Ki being the inhibitor constant in millimoles per liter:
The result obtained with a representative dipeptide derivative in this test is given in Table II hereinafter, the I50 being the concentration in millimoles per liter which gives 50% inhibition of the human granulocyte elastase: […]
As to `CCNC(=O)[C@@H]1CCCN1C(=O)[C@H](C)NS(=O)(=O)c1ccc(C)cc1` [N-(p-Toluenesulphonyl)-L-alanyl-L-proline ethylamide] (Tos-Ala-Pro-NHEt), the IC50 stood at 900 µM.

The values above are taken from US4176116A, “Dipeptide derivatives” (Hoffmann-La Roche Inc., priority 1976, dated 1979).
